CCCCCC[n+]1ccn(C)c1.O=[N+]([O-])[O-]
solubility (mole fraction)
Conditions	in benzene	in cyclohexane	in m-xylene	in n-heptane	in n-hexane	in n-octane	in n-pentane	in o-xylene	in p-xylene	in toluene
278.15 K	–	–	–	–	–	–	0.000359	–	–	–
283.15 K	–	–	–	–	–	–	0.000397	–	–	–
288.15 K	–	–	–	–	0.000306	–	0.000442	–	–	–
293.15 K	–	0.000304	–	–	0.000362	0.000203	0.000484	–	–	–
298.15 K	0.000219	0.000357	0.00239	–	0.00042	0.000234	0.000534	0.00133	0.000795	0.000278
303.15 K	0.000263	0.0004	0.00271	–	0.000492	0.000268	0.000578	0.00145	0.000896	0.000334
308.15 K	0.000308	0.000446	0.00303	–	0.000575	0.000299	–	0.0016	0.00102	0.00039
313.15 K	0.000382	0.000516	0.00337	0.000268	0.000693	0.000344	–	0.00173	0.00114	0.000482
318.15 K	0.000454	0.000592	0.00376	0.000358	0.000794	0.00038	–	0.00187	0.00128	0.000585
323.15 K	0.000536	0.000674	0.00413	0.00049	0.000895	0.000421	–	0.00198	0.00141	0.000686
328.15 K	0.00061	0.000751	0.00458	0.000629	0.000995	0.000458	–	0.00213	0.00155	0.000776
333.15 K	0.000714	0.000857	0.00505	0.000841	0.00113	0.000518	–	0.00227	0.00169	0.000904
338.15 K	0.000832	0.00097	0.00553	0.00109	–	0.000568	–	0.0024	0.00182	0.00106
343.15 K	0.000962	–	0.00607	0.00142	–	0.000631	–	0.00253	0.00199	0.00123

— BigSolDB 2.1
